Experiments:
[1] = Antioxidant activity assessed as inhibition of copper-induced human LDL oxidation; format: functional
[2] = Antioxidant activity assessed as inhibition of endothelial cell-induced human LDL oxidation; format: functional, cell-based

Question: With `O=c1cc(-c2ccc(O)cc2)oc2cc(O)ccc12` as the compound, how does the IC50 [1] read?
Answer: > 100000 nM

Question: For `CC(C)(C)c1cc(-c2cc(=O)c3ccc(OCC(O)CO)cc3o2)cc(C(C)(C)C)c1O` (stereo not drawn), which IC50 [1] is on record?
Answer: 100 nM

Question: With `COc1ccc2c(=O)cc(-c3cc(C(C)(C)C)c(O)c(C(C)(C)C)c3)oc2c1` as the compound, how does the IC50 [1] read?
Answer: 1000 nM

Question: For `COc1ccc2c(=O)cc(-c3cc(C(C)(C)C)c(OC)c(C(C)(C)C)c3)oc2c1`, which IC50 [1] is on record?
Answer: > 100000 nM

Question: For `CC(C)(C)c1cc(-c2cc(=O)c3ccc(OCC(=O)O)cc3o2)cc(C(C)(C)C)c1O` [listing 1 of 2 here], which IC50 [1] is on record?
Answer: 100 nM

Question: With `CCCCCOC(=O)COc1ccc2c(=O)cc(-c3cc(C(C)(C)C)c(O)c(C(C)(C)C)c3)oc2c1` as the compound, how does the IC50 [1] read?
Answer: 5000 nM

Question: For `CC(C)(C)c1cc(-c2cc(=O)c3ccc(OCC(=O)N4CCCCC4)cc3o2)cc(C(C)(C)C)c1O`, which IC50 [1] is on record?
Answer: 3000 nM

Question: With `CC(C)(C)c1cc(-c2cc(=O)c3ccc(OCc4ccc5ccccc5n4)cc3o2)cc(C(C)(C)C)c1O` as the compound, how does the IC50 [1] read?
Answer: 3000 nM

Question: With `CN(C)CCCOc1ccc2c(=O)cc(-c3cc(C(C)(C)C)c(O)c(C(C)(C)C)c3)oc2c1` as the compound, how does the IC50 [1] read?
Answer: 700 nM

Question: Which IC50 [1] does the source give for `CCOC(=O)CCCCOc1ccc2c(=O)cc(-c3cc(C(C)(C)C)c(O)c(C(C)(C)C)c3)oc2c1` here?
Answer: 3000 nM

Question: For `CC(C)(C)c1cc(-c2cc(=O)c3ccc(OCCCS(=O)(=O)O)cc3o2)cc(C(C)(C)C)c1O`, which IC50 [1] is on record?
Answer: 500 nM

Question: Which IC50 [2] does the source give for `CC(C)(C)c1cc(-c2cc(=O)c3ccccc3o2)cc(C(C)(C)C)c1O` here?
Answer: 2500 nM

Question: What about the IC50 [1] of the same compound?
Answer: 3000 nM

Question: With `CC(C)(C)c1cc(-c2cc(=O)c3ccc(OCc4ccc(Cl)cc4)cc3o2)cc(C(C)(C)C)c1O` as the compound, how does the IC50 [1] read?
Answer: 7000 nM

Question: Which results are given for `CCOC(=O)C(C)(C)Oc1ccc2c(=O)cc(-c3cc(C(C)(C)C)c(O)c(C(C)(C)C)c3)oc2c1`?
Answer: IC50 [2]: 500 nM; IC50 [1]: 3000 nM

Question: Which results are given for `CCCCCCOc1ccc2c(=O)cc(-c3cc(C(C)(C)C)c(O)c(C(C)(C)C)c3)oc2c1`?
Answer: IC50 [2]: 50000 nM; IC50 [1]: 5000 nM

Question: Which IC50 [2] does the source give for `CC(C)(C)c1cc(C(=O)Oc2ccc3c(=O)cc(-c4cc(C(C)(C)C)c(O)c(C(C)(C)C)c4)oc3c2)cc(C(C)(C)C)c1O` here?
Answer: 70000 nM

Question: What about the IC50 [1] of the same compound?
Answer: 30000 nM

Question: For `CC(C)(C)c1cc(-c2cc(=O)c3ccc(OCC(=O)N4CCN(Cc5ccccc5)CC4)cc3o2)cc(C(C)(C)C)c1O`, which IC50 [1] is on record?
Answer: 3000 nM

Question: What does the source list for `CC(C)(C)c1cc(-c2cc(=O)c3ccc(OCC(=O)O)cc3o2)cc(C(C)(C)C)c1O` [listing 2 of 2 here]?
Answer: IC50 [2]: 500 nM; IC50 [1]: 3000 nM

Question: Which IC50 [1] does the source give for `CCN(CC)C(=O)COc1ccc2c(=O)cc(-c3cc(C(C)(C)C)c(O)c(C(C)(C)C)c3)oc2c1` here?
Answer: 3000 nM

Question: With `CN(C)CCOc1ccc2c(=O)cc(-c3cc(C(C)(C)C)c(O)c(C(C)(C)C)c3)oc2c1` as the compound, how does the IC50 [1] read?
Answer: 700 nM

Question: For `CC(C)(C)c1cc(-c2cc(=O)c3ccc(OCCO)cc3o2)cc(C(C)(C)C)c1O`, which IC50 [1] is on record?
Answer: 3000 nM

Question: Which IC50 [2] does the source give for `CCOC(=O)COc1ccc2c(=O)cc(-c3cc(C(C)(C)C)c(O)c(C(C)(C)C)c3)oc2c1` here?
Answer: 800 nM

Question: And the IC50 [1]?
Answer: 3000 nM

Question: With `CC(C)(C)c1cc(-c2cc(=O)c3ccc(OCCN4CCOCC4)cc3o2)cc(C(C)(C)C)c1O` as the compound, how does the IC50 [2] read?
Answer: 800 nM

Question: And the IC50 [1]?
Answer: 800 nM

Question: With `CC(C)(C)c1cc(-c2cc(=O)c3ccc(O)cc3o2)cc(C(C)(C)C)c1O` as the compound, how does the IC50 [2] read?
Answer: 2000 nM

Question: What about the IC50 [1] of the same compound?
Answer: 1000 nM

Question: For `O=c1cc(-c2ccc(O)cc2)oc2cc(O)cc(O)c12` [APIGENIN], which IC50 [1] is on record?
Answer: > 100000 nM

Question: For `Cc1cc(C(C)(C)C)c(O)c(C(C)(C)C)c1` [BUTYLATED HYDROXYTOLUENE], which IC50 [1] is on record?
Answer: 3000 nM

Question: With `CC(C)(Sc1cc(C(C)(C)C)c(O)c(C(C)(C)C)c1)Sc1cc(C(C)(C)C)c(O)c(C(C)(C)C)c1` [PROBUCOL] as the compound, how does the IC50 [2] read?
Answer: 4000 nM

Question: And the IC50 [1]?
Answer: 3000 nM

Question: What does the source list for VITAMIN E?
Answer: IC50 [2]: 4000 nM; IC50 [1]: > 100000 nM
